Test results: patent US20240285587A1, “NOVEL THERAPEUTIC AGENT THAT SUPPRESSES METASTASIS AND PROLIFERATION OF OSTEOSARCOMA AND GLIOMA” (JAPANESE FOUNDATION FOR CANCER RESEARCH, priority 2021, published 2024)
“Also recorded” adds a separate entry of the source.

Legend:
[1] = tested on: osteosarcoma cells G-292; assay: Osteosarcoma G-292 subcutaneous xenograft model, tumor volume; assay type: in vivo; settings: oral 30 mg/kg, 5 consecutive days and withdrawal for 2 days from Day 1, from Day 14, SCID-beige mouse
Method: Into each female SCID-beige mouse, 8.2×10^5 cells of the osteosarcoma cells G-292 were subcutaneously transplanted (Day 0), and on the day after the transplantation (Day 1) oral administration according to a dosing schedule of continuous administration of the LPAR1 antagonist BMS-986020 of 30 mg/kg for 5 consecutive days and withdrawal for 2 days was initiated (FIG. 8A). The proliferation of tumor was analyzed by measuring the major axis and minor axis of tumor and calculating the tumor volume as major axis (mm)×[minor axis (mm)]^2×½.

[2] = tested on: human glioblastoma cells Onda7, YKG-1, and 42-MG-BA; assay: Glioblastoma cell viability with LPAR1 antagonists, CellTiter-Gro; assay type: cell-based; settings: different concentrations, 72 hours; Onda7, YKG-1, 42-MG-BA
Method: Next, examination was carried out to determine whether LPAR1 antagonists had effects on viabilities of glioblastoma cells. On a 96-well plate, 1500 to 3000 cells of each of the human glioblastoma cells Onda7, YKG-1, and 42-MG-BA were seeded and treated with any of the LPAR1 antagonists Ki16425, BMS-986020, and ONO-7300243 in different concentrations, and the cell viabilities 72 hours thereafter were determined with CellTiter-Gro reagent (FIG. 10A).

[3] = tested on: Onda7 cells; assay: Glioblastoma intracranial xenograft model (Onda7 with Akaluc luciferase), IVIS imaging; assay type: in vivo, mouse; settings: oral 50 mg/kg or 100 mg/kg, 5 days on/2 days off from 3 weeks after transplantation; from 2 weeks after initiation, even for 50 mg/kg
Method: Examination was carried out to determine whether an LPAR1 antagonist exerts antitumor effect even for glioblastoma. Into each female SCID-beige mouse, 2×10^5 Onda7 cells with Akaluc luciferase introduced therein were intracranially transplanted. Three weeks after the transplantation, oral administration according to a dosing schedule of continuous administration of the LPAR1 antagonist BMS-986020 of 50 mg/kg or 100 mg/kg for 5 consecutive days and withdrawal for 2 days was initiated (FIG. 11A). For tumor volume, the enzymatic activity of AkaLuc luciferase stably expressed in Onda7 cells was quantified with an IVIS imaging system (FIG. 11B).

[4] = tested on: MG-63, HuO9, or G-292 cells; assay: Transwell chamber migration ability of osteosarcoma cells with LPA as chemoattractant; assay type: cell-based, human; settings: 4 to 6 hours, MG-63, HuO9, G-292
Method: Next, the influence of LPA on migration ability and invasive ability was analyzed (FIG. 3C). Analysis of migration ability was carried out by using a Transwell chamber (Corning Incorporated, 8.0 μm pore). In an insert, 1×10^5 MG-63, HuO9, or G-292 cells suspended in 0.3 mL of serum-free MEM medium were seeded with 10 nM LPA as a chemoattractant in 1.25 mL of serum-free MEM medium put in the lower chamber, left to stand for 4 to 6 hours and then fixed, and subjected to analysis of migration ability (LPA). Separately, cells after being pretreated with 100 nM Ki16425 (Santa Cruz Biotechnology, Inc.), which is an LPAR antagonist, for 1 hour were collected, seeded in an insert, and subjected to analysis of migration ability in the presence of 100 nM Ki16425 (LPA+Ki16425).

[5] = tested on: osteosarcoma cells MG-63, HuO9, and G-292; assay: Matrigel Invasion Chamber invasive ability of osteosarcoma cells with platelet releasate; assay type: cell-based, human; settings: cells treated with Ki16425 in advance (100 nM), platelet releasate in underlying chamber, 22 to 24 hours
Method: The osteosarcoma cells MG-63, HuO9, and G-292 were each seeded in an insert (upper chamber) of a Matrigel Invasion Chamber (Corning Incorporated) at 1.5×10^5 cells/0.5 mL with the platelet releasate put in the lower chamber, and left to stand at 37° C. for 22 to 24 hours, and then cells on the top surface of the insert were completely wiped away, fixation was performed with 4% paraformaldehyde, and cells on the bottom surface of the membrane of the insert, i.e., invaded cells were stained with 1% crystal violet (FIG. 1B).
(§1) In addition, analysis of invasive ability was carried out by using a Matrigel Invasion Chamber in the same manner as for FIG. 1C (FIG. 3D). […] Accordingly, the reduction in migration ability and invasive ability due to Ki16425 was confirmed not to be caused by cytotoxicity to the cells.

[6] = tested on: G-292 and MG-63 cells; assay: Cell viability / cytotoxicity of osteosarcoma cells with Ki16425 (FIG. 3E); assay type: cell-based, human
Method: as §1

[7] = tested on: human glioblastoma cells Onda7, YKG-1, and 42-MG-BA; assay: Transwell chamber migration ability of glioblastoma cells with LPA; assay type: cell-based; settings: 24 hours
Method: Accordingly, the effects of LPAR1 antagonists to suppress metastasis and cell proliferation are also expected to be exerted for glioma. In view of the fact that glioblastoma is the highest malignancy tumor among gliomas as described above, migration ability with addition of LPA was analyzed with glioblastoma cell strains. Analysis was performed to determine whether the mobility of glioblastoma cells is augmented in the presence of LPA. In a Transwell chamber, the human glioblastoma cells Onda7 (obtained from JCRB Cell Bank), YKG-1 (obtained from JCRB Cell Bank), and 42-MG-BA (obtained from DSMZ) were seeded at 1×10^5 cells each, with addition of 100 nM LPA as a migration factor to the underlying chamber, and 24 hours thereafter cells that migrated to the underlying chamber were stained with crystal violet and quantified. Before being collected, the cells were pretreated with 100 nM Ki16425, which is an LPAR antagonist, for 1 hour, and subjected to analysis of migration ability still in the presence of 100 nM Ki16425.

[8] = target: LPAR1 (Homo sapiens, UniProt Q92633); settings: cited from earlier work
[9] = target: LPAR2 (Homo sapiens, UniProt Q9HBW0); settings: cited from earlier work
[10] = target: T1, LPAR3 (Homo sapiens, UniProt Q9UBY5); settings: cited from earlier work
T1 sequence (Q9UBY5 1-353): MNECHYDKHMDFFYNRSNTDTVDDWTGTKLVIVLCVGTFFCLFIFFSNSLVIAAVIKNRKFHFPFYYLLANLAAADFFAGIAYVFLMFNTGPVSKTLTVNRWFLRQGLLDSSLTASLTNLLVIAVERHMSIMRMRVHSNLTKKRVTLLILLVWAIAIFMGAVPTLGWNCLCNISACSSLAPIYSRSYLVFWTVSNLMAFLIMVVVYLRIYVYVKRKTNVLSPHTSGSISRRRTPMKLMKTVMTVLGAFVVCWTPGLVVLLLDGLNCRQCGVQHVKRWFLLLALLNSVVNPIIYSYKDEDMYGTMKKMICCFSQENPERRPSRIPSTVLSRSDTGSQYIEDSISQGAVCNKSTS

[11] = tested on: HuO9/Akaluc cells; assay: Lung metastasis mouse model, intravenously injected HuO9/Akaluc cells, bioluminescent imaging; assay type: in vivo
Method: Into each female SCID-beige mouse (C.B-lgh-1b/GbmsTac-Prkdc^scid-Lyst^bgN7, Charles River Laboratories Japan, Inc.), 1×10^6 MG-63/Akaluc/sgCTRL or MG-63/Akaluc/sgLPAR #1 cells were intravenously injected, 3 hours and 7 days after, 100 μL of 5 mM AkaLumine-HCL was intraperitoneally injected and in vivo luminescence imaging (bioluminescent imaging, BLI) was carried out. The BLI was carried out by using an IVIS imaging system (PerkinElmer, Inc.). […] On the day of intravenous injection of cells (Day 0), the both types of cells were captured in lungs to the same degree.
Next, effects of an LPAR1 antagonist was examined. Analysis with a mouse model was carried out by using ONO-7300243 (Cayman Chemical Company), which is one of LPAR1 inhibitors. […] In the experiment, ONO-7300243 was used at different doses of 10 mg/kg and 30 mg/kg.
The BLI was carried out for 1.5 to 3 hours, 1 day, and 2 days after the administration (FIG. 6B). Immediately after the administration, it was observed that HuO9/Akaluc cells were captured in lungs at any dose.

[12] = tested on: MG-63 cells; assay: Immunostaining of phosphorylated AKT and F-actin in LPA-treated osteosarcoma cells; assay type: cell-based, human; settings: 100 nM LPA for 4 hours, serum-free MEM
Method: LPA receptors are G-protein-coupled receptors, and LPAR1 is known to activate three G proteins, Gαi/0, Gαq/11, and Gα12/13, and to activate a signal transduction system including a PI3K/AKT pathway. MG-63 cells were cultured with serum-free MEM medium overnight, then treated with 100 nM LPA for 4 hours, immunostained through a conventional method with an anti-phosphorylated AKT antibody (an antibody to detect phosphorylation of S473), rhodamine-labeled phalloidin (for binding to F actin), and Hoechst 33342 (for staining nuclei), and observed with a microscope (FIG. 3B). […] Although results are not shown herein, time-lapse analysis with a microscope was carried out to analyze effects of LPA on osteosarcoma cells, and it was observed that osteosarcoma cells formed numerous protrusions (pseudopodia) as a result of the LPA treatment.

Sequence of LPAR2 (Q9HBW0 whole entry, species assumed): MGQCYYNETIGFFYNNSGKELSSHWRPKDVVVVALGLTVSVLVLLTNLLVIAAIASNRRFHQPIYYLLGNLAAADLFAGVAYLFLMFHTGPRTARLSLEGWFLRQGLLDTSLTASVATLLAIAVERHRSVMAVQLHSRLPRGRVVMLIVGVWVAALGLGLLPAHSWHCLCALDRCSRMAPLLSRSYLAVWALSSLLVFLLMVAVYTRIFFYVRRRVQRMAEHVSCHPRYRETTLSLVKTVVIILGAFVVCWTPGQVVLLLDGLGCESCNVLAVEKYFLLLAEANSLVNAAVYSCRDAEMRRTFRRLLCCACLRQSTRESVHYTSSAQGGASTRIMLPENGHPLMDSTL
Sequence of LPAR1 (Q92633 whole entry, species assumed): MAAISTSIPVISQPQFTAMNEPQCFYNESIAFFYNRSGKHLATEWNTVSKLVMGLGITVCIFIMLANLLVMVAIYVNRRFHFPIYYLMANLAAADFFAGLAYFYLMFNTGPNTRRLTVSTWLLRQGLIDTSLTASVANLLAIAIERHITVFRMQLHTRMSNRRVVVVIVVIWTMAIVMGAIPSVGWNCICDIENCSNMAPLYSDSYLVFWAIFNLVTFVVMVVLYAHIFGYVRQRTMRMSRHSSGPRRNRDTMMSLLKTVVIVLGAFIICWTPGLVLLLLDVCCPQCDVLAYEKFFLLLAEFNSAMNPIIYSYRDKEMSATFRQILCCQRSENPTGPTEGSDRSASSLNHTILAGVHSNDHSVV

With Cc1noc(-c2ccc(-c3ccc(C4(C(=O)O)CC4)cc3)cc2)c1NC(=O)O[C@H](C)c1ccccc1 [BMS-986020] the “tumor volume / tumor proliferation” value ([1]; 30 mg/kg) was “significant tumor proliferation-suppressing effect”, the “tumor volume / tumor proliferation” value ([1]; listed as BMS986020, 30 mg/kg) was “tumor proliferation is suppressed” and the cell viabilities [2] was “Reduced cell viabilities”. For the same compound, the “proliferation of glioblastoma cells / relative tumor volume” value [3] was “almost comparable to that at the transplantation”.

In the case of Cc1noc(-c2ccc(CSCCC(=O)O)cc2)c1NC(=O)OC(C)c1ccccc1Cl (stereo not drawn) [Ki16425], the migration ability ([4]; 100 nM Ki16425 (1 hour pretreatment and during assay), 10 nM LPA in lower chamber) is reported as “cancellation of the effects of LPA; also recorded: largely reduced migration ability”, the invasive ability [5] is reported as “cancellation of the effects of platelet releasate; also recorded: largely reduced invasive ability” and the cytotoxicity ([6]; 100 nM, 4 to 6 hours (migration) or 22 to 24 hours (invasion)) is reported as “no cytotoxicity was found”. The cell viabilities ([6]; cultured for 72 hours, Ki16425 at 500 nM or more, G-292 and MG-63) was “reduced cell viabilities”, the migration ability ([7]; 100 nM Ki16425 (1 hour pretreatment and during assay), 100 nM LPA) was “largely reduced migration ability” and the cell viabilities [2] was “Reduced cell viabilities”. The “inhibitory effect to LPAR1” value [8] was “exhibits inhibitory effect”, the “inhibitory effect to LPAR2” value [9] was “exhibits inhibitory effect” and the “inhibitory effect to LPAR3” value [10] was “exhibits inhibitory effect”.

With COc1cc(C(=O)N(CCCc2ccccc2)Cc2ccc(CC(=O)O)cc2)cc(OC)c1C [ONO-7300243] the “Total Flux measured with the IVIS” value ([11]; Day 1, 30 mg/kg administration group vs solvent administration group) was “significant difference”, the “Total Flux measured with the IVIS” value ([11]; Day 2, 10 mg/kg administration group vs 30 mg/kg administration group) was “significant difference” and the “Total Flux measured with the IVIS” value ([11]; day of injection of cells, among the groups) was “no significant difference”. The “osteosarcoma cells captured in lungs (BLI) / lung metastasis” value ([11]; oral 10 mg/kg and 30 mg/kg before i.v. HuO9/Akaluc cells, a day or two later, vs solvent administration group) was “lung metastasis is suppressed; also recorded: reduction of osteosarcoma cells captured in lungs” and the cell viabilities [2] was “Reduced cell viabilities”.

In the case of lysophosphatidic acid [LPA], the “migration ability (effect of LPA)” value ([4]; 10 nM LPA as chemoattractant) is reported as “migration ability largely enhanced”, the “migration ability (effect of LPA)” value ([7]; 100 nM LPA as migration factor) is reported as “migration ability was largely enhanced” and the “phosphorylated AKT (S473)” value [12] is reported as “Activated AKT was found”.
